Consider 27 compounds from patent US11427548B2 (Arvinas Operations, Inc., priority 2015, dated 2022).

A value given as a limit tells only on which side of the number the result lay.

In this assay the target is T1, Androgen Receptor (Homo sapiens, UniProt P10275).
T1 construct: endogenous in cells; host or cells: VCaP cells
T1 sequence (P10275 1-920): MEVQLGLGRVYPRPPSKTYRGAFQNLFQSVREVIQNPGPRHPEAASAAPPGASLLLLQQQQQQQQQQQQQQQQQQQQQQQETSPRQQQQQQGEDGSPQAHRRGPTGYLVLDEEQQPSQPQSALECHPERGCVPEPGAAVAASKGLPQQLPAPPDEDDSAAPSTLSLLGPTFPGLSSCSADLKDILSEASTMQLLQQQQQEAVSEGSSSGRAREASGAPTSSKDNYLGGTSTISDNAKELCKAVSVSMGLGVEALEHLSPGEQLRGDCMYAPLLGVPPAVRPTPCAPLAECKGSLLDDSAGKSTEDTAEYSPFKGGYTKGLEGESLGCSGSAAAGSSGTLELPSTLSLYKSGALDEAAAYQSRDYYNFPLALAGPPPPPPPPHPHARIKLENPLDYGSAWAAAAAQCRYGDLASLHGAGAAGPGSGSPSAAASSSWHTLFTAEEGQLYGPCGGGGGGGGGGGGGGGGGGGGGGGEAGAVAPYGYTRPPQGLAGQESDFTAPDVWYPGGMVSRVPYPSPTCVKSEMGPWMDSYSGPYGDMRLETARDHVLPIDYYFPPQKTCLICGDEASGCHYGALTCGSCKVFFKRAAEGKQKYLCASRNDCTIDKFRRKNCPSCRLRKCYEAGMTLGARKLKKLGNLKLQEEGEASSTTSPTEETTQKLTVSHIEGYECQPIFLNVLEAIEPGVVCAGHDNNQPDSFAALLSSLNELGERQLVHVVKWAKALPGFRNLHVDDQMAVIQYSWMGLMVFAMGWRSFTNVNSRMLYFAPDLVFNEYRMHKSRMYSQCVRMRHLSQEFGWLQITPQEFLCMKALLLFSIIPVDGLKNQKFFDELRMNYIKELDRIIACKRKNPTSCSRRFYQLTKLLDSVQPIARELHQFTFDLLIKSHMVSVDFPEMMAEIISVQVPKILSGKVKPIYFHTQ
Description: Androgen Receptor ELISA assay (PathScan AR ELISA) in VCaP cells: AR degradation, Dmax and DC50. Type of assay: cell-based. As to conditions: VCaP cells, Table 35; for DC50: read-out: VCaP DC50; for Dmax: VCaP, read-out: VCaP Dmax (%). Summed up: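 VCaP cells in phenol red-free RPMI with 5% charcoal-stripped FBS were grown at least 3 days, then given compound as 7 half-log doses in 0.1% DMSO with 0.1 nM R1881 for 24 h. Lysates went into a sandwich AR ELISA with TMB read at 450 nm.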
(In general: ELISA stands for enzyme-linked immunosorbent assay.)

Usually DC50 stands for the concentration giving 50% degradation. In general, Dmax refers to the greatest extent of degradation seen. Turning to `Cc1ncsc1-c1ccc([C@@H](CN(C)C)NC(=O)[C@@H]2C[C@@H](O)CN2C(=O)[C@@H](NC(=O)COCCCCCOc2ccc(C(=O)N[C@H]3C(C)(C)[C@H](Oc4ccc(C#N)c(Cl)c4)C3(C)C)cc2)C(C)(C)C)cc1` [Example 471], the DC50 was above 501 nM and the Dmax was in the range of 26 to 50%. The matching figures for `Cc1ncsc1-c1ccc(CNC(=O)[C@@H]2C[C@@H](O)CN2C(=O)[C@@H](NC(=O)CS(=O)(=O)CCOc2ccc(-c3ccc(C(=O)N[C@H]4C(C)(C)[C@H](Oc5ccc(C#N)c(Cl)c5)C4(C)C)cc3)cc2)C(C)(C)C)cc1` [Example 472]: below 50 nM and above 71%. In the case of `Cc1ncsc1-c1ccc([C@H](C)NC(=O)[C@@H]2C[C@@H](O)CN2C(=O)[C@@H](NC(=O)COCCCCCNc2ccc(C(=O)N(C)[C@H]3C(C)(C)[C@H](Oc4ccc(C#N)c(Cl)c4)C3(C)C)cc2)C(C)(C)C)cc1` [Example 473], the DC50 was below 50 nM and the Dmax lay in the range of 26 to 50%. For the compound `Cc1ncsc1-c1ccc([C@@H](CN)NC(=O)[C@@H]2C[C@@H](O)CN2C(=O)[C@@H](NC(=O)COCCCCCOc2ccc(C(=O)N[C@H]3C(C)(C)[C@H](Oc4ccc(C#N)c(Cl)c4)C3(C)C)cc2)C(C)(C)C)cc1` [Example 474], the 50% degradation concentration (DC50) was below 50 nM and the Dmax is 26 to 50%. The matching figures for `Cc1ncsc1-c1ccc([C@H](CN)NC(=O)[C@@H]2C[C@@H](O)CN2C(=O)[C@@H](NC(=O)COCCCCCOc2ccc(C(=O)N[C@H]3C(C)(C)[C@H](Oc4ccc(C#N)c(Cl)c4)C3(C)C)cc2)C(C)(C)C)cc1` [Example 475]: below 50 nM and above 71%.

`Cc1ncsc1-c1ccc(CNC(=O)[C@@H]2C[C@@H](O)CN2C(=O)[C@@H](NC(=O)COCCCCCS(=O)(=O)c2ccc(C(=O)N[C@H]3C(C)(C)[C@H](Oc4ccc(C#N)c(Cl)c4)C3(C)C)cc2)C(C)(C)C)cc1` [Example 476]: the DC50 was below 50 nM and the Dmax is above 71%. As for `Cc1ncsc1-c1ccc(CNC(=O)[C@@H]2C[C@@H](O)CN2C(=O)[C@@H](NC(=O)COCCCOCCCCCOc2ccc(N3C(=S)N(c4ccccc4)C(=O)C3(C)C)cc2)C(C)(C)C)cc1` [Example 477], the Dmax was below 25%. With `Cc1ncsc1-c1ccc(CNC(=O)[C@@H]2C[C@@H](O)CN2C(=O)[C@@H](NC(=O)COCCCOCCCCCOc2ccc(N3C(=S)N(c4cccc(C(F)(F)F)c4)C(=O)C3(C)C)cc2)C(C)(C)C)cc1` [Example 478], the 50% degradation concentration (DC50) was in the range of 51 to 500 nM and the Dmax was in the range of 26 to 50%. On to `Cc1ncsc1-c1ccc(CNC(=O)[C@@H]2C[C@@H](O)CN2C(=O)[C@@H](NC(=O)COCCCOCCCCCOc2ccc(N3C(=S)N(c4ccc(C#N)cc4)C(=O)C3(C)C)cc2)C(C)(C)C)cc1` [Example 479], for which the Dmax fell in the range of 26 to 50%.

For `CC(C)(C)[C@H](NC(=O)CNCCCCCNc1ccc(C(=O)N[C@H]2C(C)(C)[C@H](Oc3ccc(C#N)c(Cl)c3)C2(C)C)cc1)C(=O)N1C[C@H](O)C[C@H]1C(=O)NCc1ccc(C#N)cc1` [Example 480], the DC50 was above 501 nM and the Dmax was in the range of 26 to 50%. Turning to `Cc1ncsc1-c1ccc(CNC(=O)[C@@H]2C[C@H](O)CN2C(=O)[C@@H](NC(=O)COCCOc2ccc(-c3ccc(C(=O)N[C@H]4C(C)(C)[C@H](Oc5ccc(C#N)c(Cl)c5)C4(C)C)cc3)cc2)C(C)(C)C)cc1` [Example 481], the DC50 is above 501 nM and the Dmax is below 25%.

For the compound `Cc1ncsc1-c1ccc([C@H](C)NC(=O)[C@@H]2C[C@@H](O)CN2C(=O)[C@@H](NC(=O)COCCCCCNc2ccc(C(=O)N[C@H]3C(C)(C)[C@H](Oc4ccc(C#N)c(Cl)c4)C3(C)C)nc2)C(C)(C)C)cc1` [Example 482], the half-maximal degradation concentration (DC50) was below 50 nM and the maximal degradation (Dmax) is 51 to 70%. For `Cc1ncsc1-c1ccc([C@H](C)NC(=O)[C@@H]2C[C@@H](O)CN2C(=O)[C@@H](NC(=O)CNCCNc2ccc(-c3ccc(C(=O)N[C@H]4C(C)(C)[C@H](Oc5ccc(C#N)c(Cl)c5)C4(C)C)cc3)cn2)C(C)(C)C)cc1` [Example 483], the DC50 was below 50 nM and the Dmax is above 71%. For `Cc1ncsc1-c1ccc(CNC(=O)[C@@H]2C[C@@H](O)CN2C(=O)[C@@H](NC(=O)CNCCNc2ccc(-c3ccc(C(=O)N[C@H]4C(C)(C)[C@H](Oc5ccc(C#N)c(Cl)c5)C4(C)C)cc3)cn2)C(C)(C)C)cc1` [Example 484] the same measures were below 50 nM and 51 to 70%. For the compound `Cc1ncsc1-c1ccc([C@H](C)NC(=O)[C@@H]2C[C@@H](O)CN2C(=O)[C@@H](NC(=O)COCCCCCNc2ccc(C(=O)N[C@H]3C(C)(C)[C@H](Oc4ccc(C#N)c(Cl)c4)C3(C)C)c(F)c2)C(C)(C)C)cc1` [Example 495], the DC50 is above 501 nM and the greatest degradation seen (Dmax) is 26 to 50%. The matching figures for `Cc1ncsc1-c1ccc([C@H](C)NC(=O)[C@@H]2C[C@@H](O)CN2C(=O)[C@@H](NC(=O)COCCCCCNc2ccc(C(=O)N[C@H]3C[C@H](Oc4ccc(C#N)c(Cl)c4)C3)cc2)C(C)(C)C)cc1` [Example 496]: below 50 nM and 51 to 70%. Take `Cc1ncsc1-c1ccc([C@H](C)NC(=O)[C@@H]2C[C@@H](O)CN2C(=O)[C@@H](NC(=O)COCCCCCNc2ccc(C(=O)N[C@H]3C(C)(C)[C@H](Oc4cnc(C#N)c(C(F)(F)F)c4)C3(C)C)cc2)C(C)(C)C)cc1` [Example 497]: the DC50 was below 50 nM and the Dmax lay within 51 to 70%. Consider `CC(C)(C)[C@H](NC(=O)CNc1ccc(C#Cc2ccc(C(=O)N[C@H]3C(C)(C)[C@H](Oc4ccc(C#N)c(Cl)c4)C3(C)C)cc2)cn1)C(=O)N1C[C@H](O)C[C@H]1C(=O)NCc1ccc(C#N)cc1` [Example 498], for which the DC50 was below 50 nM and the Dmax was above 71%. As for `CC(C)(C)[C@H](NC(=O)COCCCCCNc1ccc(C(=O)N[C@H]2C(C)(C)[C@H](Oc3ccc(C#N)c(Cl)c3)C2(C)C)cc1)C(=O)N1C[C@H](O)C[C@H]1C(=O)NCc1ccc(C2=CCNCC2)cc1` [Example 499], the DC50 was above 501 nM and the Dmax was 26 to 50%. Turning to `CC(C)(C)[C@H](NC(=O)CNCCNc1ccc(-c2ccc(C(=O)N[C@H]3C(C)(C)[C@H](Oc4ccc(C#N)c(Cl)c4)C3(C)C)cc2)cn1)C(=O)N1C[C@H](O)C[C@H]1C(=O)NCc1ccc(C#N)cc1` [Example 500], the DC50 was below 50 nM and the Dmax lay within 26 to 50%. As to `CC(C)(C)[C@H](NC(=O)CNCCOc1ccc(-c2ccc(C(=O)N[C@H]3C(C)(C)[C@H](Oc4ccc(C#N)c(Cl)c4)C3(C)C)cc2)cc1)C(=O)N1C[C@H](O)C[C@H]1C(=O)NCc1ccc(C#N)cc1` [Example 501], the DC50 was below 50 nM and the Dmax was 51 to 70%. With `CC(C)(C)[C@H](NC(=O)COCCCCCNc1ccc(C(=O)N[C@H]2C(C)(C)[C@H](Oc3ccc(C#N)c(Cl)c3)C2(C)C)cc1)C(=O)N1C[C@H](O)C[C@H]1C(=O)NCc1ccc(-c2scnc2C(=O)O)cc1` [Example 502], the DC50 lay within 51 to 500 nM and the Dmax lay in the range of 26 to 50%. `CC(C)(C)[C@H](NC(=O)COCCCCCNc1ccc(C(=O)N[C@H]2C(C)(C)[C@H](Oc3ccc(C#N)c(Cl)c3)C2(C)C)cc1)C(=O)N1C[C@H](O)C[C@H]1C(=O)NCc1ccc(-c2scnc2N)cc1` [Example 503]: the DC50 is below 50 nM and the greatest degradation seen (Dmax) is above 71%. For the compound `CC(C)(C)[C@H](NC(=O)COCCCCCNc1ccc(C(=O)N[C@H]2C(C)(C)[C@H](Oc3ccc(C#N)c(Cl)c3)C2(C)C)cc1)C(=O)N1C[C@H](O)C[C@H]1C(=O)NCc1ccc(-c2ncns2)cc1` [Example 504], the DC50 was below 50 nM and the Dmax lay in the range of 51 to 70%. Take `CC(C)(C)[C@H](NC(=O)COCCCCCNc1ccc(C(=O)N[C@H]2C(C)(C)[C@H](Oc3ccc(C#N)c(Cl)c3)C2(C)C)cc1)C(=O)N1C[C@H](O)C[C@H]1C(=O)NCc1ccc(-n2cnnn2)cc1` [Example 505]: the DC50 is below 50 nM and the Dmax was 26 to 50%. As for `CC(C)(C)[C@H](NC(=O)COCCCCCNc1ccc(C(=O)N[C@H]2C(C)(C)[C@H](Oc3ccc(C#N)c(Cl)c3)C2(C)C)cc1)C(=O)N1C[C@H](O)C[C@H]1C(=O)NCc1ccc(-n2ncnn2)cc1` [Example 506], the DC50 was below 50 nM and the Dmax lay in the range of 51 to 70%.

Take `CNC(=O)[C@@H]1C[C@@H](O)CN1C(=O)[C@@H](NC(=O)COCCCCCOc1ccc(C(=O)N[C@H]2C(C)(C)[C@H](Oc3ccc(C#N)c(Cl)c3)C2(C)C)cc1)C(C)(C)C` [Example 507]: the DC50 was below 50 nM and the Dmax lay within 26 to 50%.
